Measured values from patent US8969335B2, “Benzonitrile derivatives as kinase inhibitors” (MERCK PATENT GmbH, priority 2011, dated 2015).

Columns and labels:
[1] = biological target: TANK binding kinase (TBK1) (Homo sapiens (Human), UniProt Q9UHD2); test: TBK1 enzyme assay (384-well flashplate kinase assay); type: biochemical; settings: 0.6 nM TBK1, 10 μM ATP, 30° C., 120 min
IKKε = IKKε (Homo sapiens (Human), UniProt Q14164); test: IKKε kinase assay (384-well flashplate assay); type: biochemical; settings: 1 nM IKKε, 10 μM ATP, 30° C., 2 hours; read-out: IKKε enzyme assay IC50
Procedure: Test for the Inhibition of IKKε
IKKε—Kinase Assay (IKKepsilon)
The kinase assay is performed as 384-well flashplate assay (for example for Topcount measurement).
1 nM IKKε, 800 nM biotinylated IκBα(19-42) peptide (Biotin-C6-C6-[…]) and 10 μM ATP (spiked with 0.3 μCi of ^33P-ATP/well) are incubated at 30° C. for 2 hours in a total volume of 50 μl (10 mM MOPS, 10 mM Mg acetate, 0.1 mM EGTA, 1 mM dithiothreitol, 0.02% of Brij35, 0.1% of BSA, 0.1% of BioStab, pH 7.5) with or without test compound. The reaction is stopped using 25 μl of 200 mM EDTA. After 30 min at room temperature, the liquid is removed, and each well is washed three times with 100 μl of 0.9% sodium chloride solution. Non-specific reaction is determined in the presence of 3 μM MSC2119074 (BX-795). The radioactivity is measured using a Topcount (PerkinElmer). The results (for example IC50 values) are calculated using program tools provided by the IT Department (for example AssayExplorer, Symyx).

Sequence of TANK binding kinase (TBK1) (Q9UHD2 whole entry): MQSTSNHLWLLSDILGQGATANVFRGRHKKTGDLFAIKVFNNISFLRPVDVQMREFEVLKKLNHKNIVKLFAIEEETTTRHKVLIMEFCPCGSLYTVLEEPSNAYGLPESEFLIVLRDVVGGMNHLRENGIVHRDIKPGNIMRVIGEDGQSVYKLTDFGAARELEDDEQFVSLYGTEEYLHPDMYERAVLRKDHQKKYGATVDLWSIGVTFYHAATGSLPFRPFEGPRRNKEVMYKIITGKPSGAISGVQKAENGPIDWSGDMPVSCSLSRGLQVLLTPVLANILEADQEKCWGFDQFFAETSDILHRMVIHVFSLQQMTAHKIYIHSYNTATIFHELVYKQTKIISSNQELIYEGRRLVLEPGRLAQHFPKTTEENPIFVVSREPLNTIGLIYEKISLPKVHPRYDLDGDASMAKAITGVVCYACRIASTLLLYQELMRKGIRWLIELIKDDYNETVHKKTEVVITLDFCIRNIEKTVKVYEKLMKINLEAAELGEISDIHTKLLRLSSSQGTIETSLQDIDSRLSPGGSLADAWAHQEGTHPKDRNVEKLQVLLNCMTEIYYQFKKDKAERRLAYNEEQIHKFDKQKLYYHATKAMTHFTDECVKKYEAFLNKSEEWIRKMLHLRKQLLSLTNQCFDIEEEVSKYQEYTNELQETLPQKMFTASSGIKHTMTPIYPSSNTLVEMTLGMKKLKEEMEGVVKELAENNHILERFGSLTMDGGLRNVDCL
Sequence of IKKε (Q14164 whole entry): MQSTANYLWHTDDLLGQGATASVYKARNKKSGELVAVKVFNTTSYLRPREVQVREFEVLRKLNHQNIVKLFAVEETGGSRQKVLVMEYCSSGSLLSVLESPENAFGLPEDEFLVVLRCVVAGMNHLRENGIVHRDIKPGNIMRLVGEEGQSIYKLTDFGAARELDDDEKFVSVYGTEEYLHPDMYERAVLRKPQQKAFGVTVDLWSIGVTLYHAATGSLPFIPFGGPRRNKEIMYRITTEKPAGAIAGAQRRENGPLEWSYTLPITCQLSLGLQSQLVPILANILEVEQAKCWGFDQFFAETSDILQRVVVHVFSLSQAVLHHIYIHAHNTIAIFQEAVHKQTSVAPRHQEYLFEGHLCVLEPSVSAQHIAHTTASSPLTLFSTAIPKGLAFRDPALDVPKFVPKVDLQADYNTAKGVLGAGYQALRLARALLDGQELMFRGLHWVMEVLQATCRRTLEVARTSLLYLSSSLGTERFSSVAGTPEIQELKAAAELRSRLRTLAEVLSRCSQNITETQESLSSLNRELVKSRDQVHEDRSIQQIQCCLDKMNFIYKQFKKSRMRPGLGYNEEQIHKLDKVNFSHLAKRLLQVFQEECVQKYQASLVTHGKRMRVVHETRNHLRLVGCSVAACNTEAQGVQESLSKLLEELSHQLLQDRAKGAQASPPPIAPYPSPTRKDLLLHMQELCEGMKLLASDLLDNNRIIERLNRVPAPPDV

Row | SMILES | IC50 [1] [nM] | IC50 (IKKε) [nM]
1 | N#Cc1cc(-c2ccnc(Nc3cnn(CC4CCOC4)c3)n2)ccc1OC1CCOCC1 (centres unmarked) [Compound A41, 5-{2-[1-(Tetrahydrofuran-3-ylmethyl)-1H-pyrazol-4-ylamino]pyrimidin-4-yl}-2-(tetrahydropyran-4-yloxy)benzonitrile] | 12 | 25
2 | CC(C)(C)c1cc(Nc2cc(-c3ccc(OC4CCOCC4)c(C#N)c3)ccn2)on1 [Compound A31, 5-[2-(3-tert-Butylisoxazol-5-ylamino)pyridin-4-yl]-2-(tetrahydropyran-4-yloxy)benzonitrile] | 860 | 850
3 | N#Cc1cc(-c2ccnc(Nc3ccc(C(N)=O)cn3)c2)ccc1OC1CCOCC1 [Compound A37, 6-{4-[3-Cyano-4-(tetrahydropyran-4-yloxy)phenyl]pyridin-2-ylamino}nicotinamide] | 32 | 21
4 | N#Cc1cc(-c2ccnc(Nc3cnn(CCC4CCN(C(=O)CN)CC4)c3)c2)ccc1OC1CCOCC1 [Compound A30, 5-[2-(1-{2-[1-(2-Aminoacetyl)piperidin-4-yl]ethyl}-1H-pyrazol-4-ylamino)pyridin-4-yl]-2-(tetrahydropyran-4-yloxy)benzonitrile] | 42 | 45
5 | N#Cc1cc(-c2ccnc(Nc3cnn(CCN4CCOCC4)c3)n2)ccc1OC1CCOCC1 [Compound A39, 5-{2-[1-(2-Morpholin-4-ylethyl)-1H-pyrazol-4-ylamino]pyrimidin-4-yl}-2-(tetrahydropyran-4-yloxy)benzonitrile] | 16 | 25
6 | N#Cc1cc(-c2ccnc(Nc3ccc(C(F)(F)F)cn3)c2)ccc1OC1CCOCC1 [Compound A13, 2-(Tetrahydropyran-4-yloxy)-5-[2-(5-trifluoromethylpyridin-2-ylamino)pyridin-4-yl]-benzonitrile] | 310 | 530
7 | N#Cc1cc(-c2ccnc(Nc3ccc(CO)cn3)c2)ccc1OC1CCOCC1 [Compound A15, 5-[2-(5-Hydroxymethylpyridin-2-ylamino)pyridin-4-yl]-2-(tetrahydropyran-4-yloxy)benzonitrile] | 14 | 21
8 | N#Cc1cc(-c2ccnc(Nc3ncccn3)c2)ccc1OC1CCOCC1 [Compound A14, 5-[2-(Pyrimidin-2-ylamino)pyridin-4-yl]-2-(tetrahydropyran-4-yloxy)benzonitrile] | 670 | 1200
9 | N#Cc1cc(-c2ccnc(Nc3cnn(C4CCNCC4)c3)c2)ccc1OC1CCOCC1 [Compound A16, 5-[2-(1-Piperidin-4-yl-1H-pyrazol-4-ylamino)pyridin-4-yl]-2-(tetrahydropyran-4-yloxy)benzonitrile] | 71 | 7
10 | N#Cc1cc(-c2ccnc(Nc3ccc4oc(C(N)=O)cc4c3)n2)ccc1OC1CCOCC1 [Compound A42, 5-{4-[3-Cyano-4-(tetrahydropyran-4-yloxy)phenyl]pyrimidin-2-ylamino}benzofuran-2-carboxamide] | 10 | 15
11 | N#Cc1cc(-c2ccnc(Nc3cnn(C[C@H]4C[C@@H]4CO)c3)c2)ccc1OC1CCOCC1 [Compound A26, 5-{2-[1-((1S,2S)-2-Hydroxymethylcyclopropylmethyl)-1H-pyrazol-4-ylamino]-pyridin-4-yl}-2-(tetrahydropyran-4-yloxy)benzonitrile] | 18 | 27
12 | N#Cc1cc(-c2ccnc(Nc3ncc4c(n3)CCNC4)c2)ccc1OC1CCOCC1 [Compound A36, 2-(Tetrahydropyran-4-yloxy)-5-[2-(5,6,7,8-tetrahydropyrido[4,3-d]pyrimidin-2-ylamino)pyridin-4-yl]benzonitrile] | – | 140

Second part, the compound after the results:

Row | IC50 [1] [nM] | IC50 (IKKε) [nM] | SMILES
13 | 180 | 140 | N#Cc1cc(-c2ccnc(Nc3cc(CO)ccn3)n2)ccc1OC1CCOCC1 [Compound A70, 5-[2-(4-hydroxymethylpyridin-2-ylamino)pyrimidin-4-yl]-2-(tetrahydropyran-4-yloxy)benzonitrile]
14 | 850 | 930 | N#Cc1cc(-c2ccnc(Nc3cncc(C4=CCCCO4)n3)c2)ccc1OC1CCOCC1 [Compound A92, 5-{2-[6-(5,6-dihydro-4H-pyran-2-yl)pyrazin-2-ylamino]pyridin-4-yl}-2-(tetrahydropyran-4-yloxy)benzonitrile]
15 | 2 | 2 | N#Cc1cc(-c2ccnc(Nc3cnn(CCC4CCNCC4)c3)n2)ccc1OC1CCOCC1 [Compound A45, 5-{2-[1-(2-Piperidin-4-ylethyl)-1H-pyrazol-4-ylamino]pyrimidin-4-yl}-2-(tetrahydropyran-4-yloxy)benzonitrile]
16 | 290 | 300 | N#Cc1cc(-c2ccnc(Nc3cc(C4=CCCCO4)ccn3)c2)ccc1OC1CCOCC1 [Compound A86, 5-{2-[4-(5,6-dihydro-4H-pyran-2-yl)pyridin-2-ylamino]pyridin-4-yl}-2-(tetrahydropyran-4-yloxy)benzonitrile]
17 | 140 | 120 | N#Cc1cc(-c2ccnc(Nc3nccc(C4CCNCC4)n3)c2)ccc1OC1CCOCC1 [Compound A89, 5-[2-(4-piperidin-4-ylpyrimidin-2-ylamino)pyridin-4-yl]-2-(tetrahydropyran-4-yloxy)benzonitrile]
18 | 490 | 82 | COCCn1cc(Nc2cc(-c3ccc(OCC4CCC4)c(C#N)c3)ccn2)cn1 [Compound A110, 2-cyclobutylmethoxy-5-{2-[1-(2-methoxyethyl)-1H-pyrazol-4-ylamino]-pyridin-4-yl}benzonitrile]
19 | 6600 | 190 | CC(=O)N1CCC(COc2ccc(-c3ccnc(Nc4cnn(C5CCNCC5)c4)c3)cc2C#N)CC1 [Compound A116, 2-(1-acetylpiperidin-4-ylmethoxy)-5-[2-(1-piperidin-4-yl-1H-pyrazol-4-ylamino)pyridin-4-yl]benzonitrile]
20 | 350 | 430 | N#Cc1cc(-c2ccnc(Nc3nccnc3CO)c2)ccc1OC1CCOCC1 [Compound A102, 5-[2-(3-hydroxymethylpyrazin-2-ylamino)pyridin-4-yl]-2-(tetrahydropyran-4-yloxy)benzonitrile]
21 | 14 | 39 | N#Cc1cc(-c2ccnc(Nc3ccc(C4CCOCC4)nn3)c2)ccc1OC1CCOCC1 [Compound A100, 2-(tetrahydropyran-4-yloxy)-5-{2-[6-(tetrahydropyran-4-yl)pyridazin-3-yl-amino]pyridin-4-yl}benzonitrile]
22 | 350 | 210 | CN1CCN(c2ccnc(Nc3cc(-c4ccc(OC5CCOCC5)c(C#N)c4)ccn3)c2)CC1 [Compound A84, 5-{2-[4-(4-methylpiperazin-1-yl)pyridin-2-ylamino]pyridin-4-yl}-2-(tetrahydropyran-4-yloxy)benzonitrile]
23 | 41 | 45 | N#Cc1cc(-c2ccnc(Nc3ccc(CN4CC5(COC5)C4)cn3)c2)ccc1OC1CCOCC1 [Compound A88, 5-{2-[5-(2-oxa-6-azaspiro[3.3]hept-6-ylmethyl)pyridin-2-yl-amino]pyridin-4-yl}-2-(tetrahydropyran-4-yloxy)benzonitrile]
24 | 70 | 65 | N#Cc1cc(-c2ccnc(Nc3cnn(CCn4cccn4)c3)n2)ccc1OC1CCOCC1 [Compound A43, 5-{2-[1-(2-Pyrazol-1-ylethyl)-1H-pyrazol-4-ylamino]pyrimidin-4-yl}-2-(tetrahydropyran-4-yloxy)benzonitrile]
